Reference: patent US11291705B2, “Use of caspase-3 inhibitors and caspase-3 activators in the manufacture of medicament for treating cancer and wound healing” (Technion Research & Development Foundation Limited, priority 2016, dated 2022)
“Also recorded” adds a separate entry of the source.

Experiments:
[1] = system: excision wounds (1 cm^2) on dorsal skin; experiment: Wound repair of full thickness excision wounds on dorsal skin; assay type: in vivo, mice
Source text: For all wound repair experiments, mice were sedated with isofluorane. Mice were shaved with electric clippers and treated topically with a hair removal cream for a few minutes (Nair). Full-thickness excision wounds (1 cm^2) were generated on the dorsal skins and monitored for wound coverage. PWI, mice were individually housed. At the desired time PWI, mice were euthanized with CO2 and the wounded skins were harvested and either embedded in OCT or prepared for whole mounts as described above or for protein extraction.
Inhibition of caspase-3 impairs wound repair—Since YAP is known to play a chief role in regeneration (34), the present inventors investigated whether in vivo inhibition of Caspase-3 affects the wound repair dynamic by modulating YAP activity. […] Full thickness excision wounds (1.0 cm^2) were generated on the dorsalbacks and monitored for wound coverage. In control mice, three days post wound infliction (PWI) the wound size was reduced by 60% while in Ivachtin and z-DEVD-fink (SEQ ID NO: 71) treated mice, it was reduced by only 10% and 20%, respectively (FIG. 5A and FIG. 5B).

[2] = system: integrin α6+CD34−EGFPhigh SGPZ cells; experiment: Proliferation and expansion of isolated SGPZ cells treated with caspase-3 inhibitors; assay type: cell-based, mice
Experimental: Flow Cytometry—SGPZ cell isolation and FACS analysis were performed with K15-EGFP mice and CD34, integrin α6 and Sca1 antibodies. K15-GFP^high cells were isolated from ears and dorsal skin of 8-week old B6.Cg-Tg(Krt1-15-EGFP)2Cot/J mice.

[3] = system: integrin α6+CD34+ HFSCs, HaCaT keratinocytes and Hek293E3 cells; experiment: Expansion of other cell types treated with caspase-3 inhibitors; assay type: cell-based
Source text: In order to examine whether Caspase-3 affects the expansion of other cell types the present inventors isolated integrin α6^+CD34^+ HFSCs from second telogen mice.

[4] = system: murine melanoma cell line B16F10; experiment: B16F10 melanoma tumors in mice
Source text: FIG. 21E—Resected tumors stained for the proliferative marker Ki67 (red). […] Denotation: CP3, Caspase-3. ** (P<0.01), *** (P<0.001).
FIG. 22C—A histogram displaying quantification of tumor weight (mg) in treated (with Ivachtin) and non-treated (DMSO) animals. […] FIG. 22E—A histogram depicting quantification of Ki67^+ melanoma cells in vivo after treatment with Ivachtin. […] FIG. 22G—A histogram depicting quantification of TUNEL^+ melanoma cells. Denotation: CP3, Caspase-3. Scale bars: 10 μm (FIGS. 22D and 22F). * (P<0.05).

sebaceous gland (SG) = experiment: Sebaceous gland (SG) size and cell proliferation in mice injected subcutaneously with caspase-3 inhibitors or activators; assay type: in vivo; details: for SG size: eight week old mice; for SG size / cell proliferation / proliferative rates in the SG: subcutaneous injection for 7 days; for cell proliferation / proliferative rates in the SG / caspase-3 activation in the SG: mice; for caspase-3 activation in the SG: subcutaneous injection for seven days
Experimental: Immunofluorescence—Skins were embedded in OCT, frozen, sectioned, and fixed in 4% paraformaldehyde. Tail samples were treated with 5 mM EDTA for 4 hours at 37° C. to separate skin epithelium from dermis and fixed in formal saline for 2 hours at room temperature. Dorsal samples were treated with 5 mM EDTA for 6 hours at 37° C. to separate skin epithelium from dermis and fixed in formal saline for 1 hour at room temperature. Samples were blocked for 2 hours in Blocking buffer consisting of 10% Goat serum, 2% BSA, 0.2% Triton-X. Primary antibodies were diluted in blocking buffer and tissue/sections were incubated overnight at 4° C. Whole mounts or sections were washed at least 3 times with PBS. Secondary antibodies were incubated for 1 hour at room temperature followed by 4 washes with PBS. The following primary antibodies were used: YAP (Rabbit, 1:100, Cell Signalling, Mouse 1:100 Santa Cruz), pYAP (Rabbit, 1:100 Cell Signalling), α-E-Catenin (Rabbit, 1:100, Cell Signalling), Ki67 (Rabbit, 1:100, Abcam; Rat, 1:100, eBioscience), CD34 (Rat, 1:100, eBioscience), K15 (Mouse, 1:100, Thermo, Chicken, 1:1000, Abcam), Sox9 (Rabbit, 1:100, Millipore, Goat, 1:50, Santa Cruz). Cleaved-Caspase-3 (Rabbit, 1:100, Cell signalling), Phalloidin (1:250, Life Technologies). TUNEL was performed using ApopTag TdT (Millipore). […] Analysis was performed on Zeiss LSM 880 confocal microscope.

B16F10 melanoma cells = B16F10 melanoma cells in vitro: growth, Ki67, pYAP, α-Catenin; assay type: cell-based
Source text: FIG. 23D—A histogram depicting quantifications of 501-A total cells number after treatment with Z-DEVD-fink (SEQ ID NO: 71). FIG. 23E—Images depicting B16F10 melanoma cells stained for Ki67 (red), active cleaved Caspase-3 (green) and nuclear counterstain DAPI (blue). […] Insets are zoom in on specific cells, Denotation: CP3, Caspase-3. Scale bars: 100 μm. ** (P<0.01), *** (P<0.001).
FIG. 24A—Images depicting B16F10 melanoma cells stained for pYAP (red). […] FIG. 24D—Images depicting B16F10 melanoma cells stained for α-Catenin (green). […] FIG. 24E—Immunoblot analysis of proteins isolated from B16F10 melanoma cells using antibodies against pYAP, α-Catenin and α-Tubulin as control.

α-Catenin [5] = experiment: Immunoblot of α-Catenin in EGFPhigh SGPZ cells; assay type: cell-based, mice; details: extracts from EGFPhigh SGPZ cells
YAP [6] = experiment: Nuclear YAP and Ki67 in SGs of mice treated with PAC-1 and/or Verteporfin; assay type: in vivo
Source text: Therefore, the present inventors investigated whether SG homeostasis is governed by YAP activity in a caspase-3 dependent manner. For this aim the present inventors employed the YAP chemical inhibitor, Verteporfin, which is known to inhibit the interaction between YAP and TEAD in the nucleus and block transcriptional activity (reference 42). The present inventor administered Verteporfin either alone or in combination with the caspase-3 activator PAC-1.

XIAP [7] = experiment: XIAP expression in treated mice; assay type: in vivo; details: for XIAP levels: treated mice
Source text: In Drosophila, Yorkie (Yki) the homolog of YAP directly regulates the transcription of Death-associated inhibitor of apoptosis 1 (Diap1), which is the functional equivalent of XIAP [Fuchs, Y. & Steller, H. Programmed cell death in animal development and disease. Cell 147, 742-758 (2011); Zhang, L., et al. The TEAD/TEF family of transcription factor Scalloped mediates Hippo signaling in organ size control. Developmental cell 14, 377-387 (2008)]. Therefore, and without being bound by any theory, the present inventors hypothesized that in the SG, XIAP might be transcriptionally regulated by YAP to balance caspase-3 activity. […] Moreover, XIAP protein levels were increased upon caspase-3 activation with PAC-1, but this effect was abolished when YAP was inhibited (FIG. 29D).

de novo regenerated SGs = experiment: De novo SG regeneration from the wound bed after full thickness excision wounds; assay type: in vivo, mice; details: for size and maturation of regenerated SGs: regenerating skin after wounding
Experimental: The wound healing process can stimulate de novo regeneration of HFs and SGs (reference 35). As such, the present inventors utilized this model to examine whether caspase-3 activation can drive SG development and maturation. Eight-week old mice were injected with DMSO, PAC-1 or PAC-1 along with Verteporfin for two days prior to wound infliction. Full thickness excision wounds (1 cm^2) were generated on the dorsalskins and skin samples were harvested 20 and 30 days post wound infliction. […] Importantly, YAP inhibition reversed these regenerative phenotypes, leading to a 10-fold reduction in the number of de novo formed SGs (FIGS. 17D and E).

XIAP [8] = experiment: XIAP protein and mRNA levels in EGFPhigh SGPZ cells; assay type: cell-based, mice
Experimental: RNA extraction, reverse transcription and real-time PCR (RT-PCR)—RNA was isolated using Trizol (Sigma) and up to 2 μg of RNA were subjected to cDNA synthesis (Applied Biosystems). Real time PCR was carried out using the PerfeCTa SYBR Green FastMix (Quanta), with gene-specific primers [RpLp0 […] (SEQ ID NO:50) and […] (SEQ ID NO:51); WTIP […] (SEQ ID NO:52) and […] (SEQ ID NO:53); ErbB4 […] (SEQ ID NO:54) and […] (SEQ ID NO:55); HOXC13 […] (SEQ ID NO:56) and […] (SEQ ID NO:57); HOXA5 […] (SEQ ID NO:58) and […] (SEQ ID NO:59)]. Amplicon levels were analysed in triplicate and quantitated relative to a standard curve comprising cDNA, and values normalized to levels of the housekeeping gene (Rplp0 or Gapdh). Reactions were: 3 minutes at 95° C., then 40 cycles of 10 seconds at 95° C. and 30 seconds at 60° C. with addition of melt curve step: 10 seconds at 95° C., and increments of 0.5° C. every 5 seconds between 65° C. to 95° C.
In Drosophila, Yorkie (Yki) the homolog of YAP directly regulates the transcription of Death-associated inhibitor of apoptosis 1 (Diap1), which is the functional equivalent of XIAP [Fuchs, Y. & Steller, H. Programmed cell death in animal development and disease. Cell 147, 742-758 (2011); Zhang, L., et al. The TEAD/TEF family of transcription factor Scalloped mediates Hippo signaling in organ size control. Developmental cell 14, 377-387 (2008)]. […]

YAP [9] = experiment: YAP nuclear translocation and pYAP levels in EGFPhigh SGPZ cells; assay type: cell-based, mice; details: immunoblot
Experimental: Cell culture—The HaCaT and HEK293 cell lines were cultured in DMEM medium supplemented with 10% FBS, 1% P/S (Pen/Strep) and 1% L-glutamine. Integrin α6^+CD34^+ HFSCs and integrin α6^+CD34^−EGFP^high SGPZ cells were isolated and cultured in HFSC media on sustaining J2 feeder cells. Serum was chelated for a calcium concentration of 50 μM. […] Cells were fixed in 4% PFA for 10 minutes for immunofluorescence analysis or harvested for protein or RNA extraction.
Given that Caspase-3 inhibition hindered cell number and proliferation in vitro the present inventors next examined whether this was mediated via YAP in EGFP^high SGPZ cells using K15^+ SGPZ cells. […] Similar findings as to effect of caspase-3 inhibition on YAP activation and proliferation were also obtained in HaCaT and Hek293E3 cells (FIGS. 3J-K, FIGS. 11B-F).

α-Catenin [10] = experiment: α-Catenin levels in vivo after caspase-3 inhibition or activation; design: species or system mice; details: Western blot and immunofluorescence
Experimental: TUNEL was performed using ApopTag TdT (Millipore). […] Analysis was performed on Zeiss LSM 880 confocal microscope.
The levels of α-Catenin are known to be a critical factor in the regulation of YAP (27). In low confluent cells, diminished levels of α-Catenin serve as a mechanotransduction mechanism that instructs the nuclear translocation of YAP and drives proliferation (27, 33). […] The present inventors therefore examined the levels of α-Catenin both in vitro and in vivo, by employing both Western blot analysis and immunofluorescence.

human melanoma cells = experiment: GFP-infected human melanoma cells injected into recipient mice; details: mouse
Experimental: FIG. 15A—Melanoma cell were injected into recipient mice. […] Representative image 6 days after first treatment. FIG. 15B—quantification of tumor development indicates inhibition of tumor size in response to caspase-3 inhibition. FIG. 15C—Extracted tumors were analyzed for proliferation using the Ki67 marker and the presence of GFP^+ melanoma cells. FIG. 15D—Tumors treated with the caspase-3 activator ABT-199 result in a dramatic increase in tumor mass. […] Scale bars, 20 μm.
Examination of the effect of caspase-3 inhibition on melanoma formation in vivo—For this aim human melanoma cells were stably infected with GFP. Cells were then injected into to recipient mice and the effect of administrating caspase-3 inhibitors was monitored.

## CC(=O)OCCN1C(=O)c2c(C)nc3ccc(S(=O)(=O)N4CCOCC4)cc3c2C1=O [Ivachtin]
[1]; 5-7 days PWI
  levels of α-Catenin in wounded skin / invading keratinocytes: increased α-Catenin levels
[1]; 7 days PWI, Western blot
  cleavage of α-Catenin in wounded dorsalskin: impairment in cleavage
[1]; 12 days PWI
  number of nuclear YAP and Ki67 cells: decreased number
[1]; FIGS. 19A-F
  wound closure: significant decrease
[1]; Ivachtin, Verteporfin or both
  effect of combining caspase-3 and YAP inhibition on wound healing: no additive effect
[1]; daily subcutaneous injection
  healing at all time points: less efficient
[1]; three days post wound infliction, injected from 2 days prior to wounding
  wound size reduced by: 10%
[2]; immunostaining, Ivachtin daily, five days
  number of cells positive for proliferative markers Ki67 and PCNA: three-fold decrease
[2]; not supplemented daily
  effect on cell number and colony formation: very limited effect
[2]; supplemented daily
  cellular expansion (proliferation and cell number): significant impairment
[3]; daily treatment
  expansion of cells: impaired the expansion
[3]; not supplemented daily
  effect on expansion of cells: very limited effect
[4]; established B16F10 tumors
  tumor weight: decrease in tumor weight
[4]; mouse, in vivo
  YAP positive cells in resected tumors: significant decreases
  cell death by TUNEL assay in resected tumors: enhanced cell death
  proliferation (Ki67) in resected tumors: reduced expression; also recorded: attenuated proliferation
  tumor size: smaller tumors
Sebaceous gland (SG); 20 and 30 days post injection
  size of the SG, length, width and number of proliferating cells: returned to normal
Sebaceous gland (SG)
  SG size: decrease in SG size
  cell proliferation / proliferative rates in the SG: impaired proliferative rates; also recorded: significant decrease
B16F10 melanoma cells; compared to DMSO
  phosphorylated YAP-positive cells (pYAP+): significant increases
B16F10 melanoma cells; continuous presence of inhibitor
  growth of B16F10 melanoma cells: hindered

## C=CCc1cccc(/C=N/NC(=O)CN2CCN(Cc3ccccc3)CC2)c1O [PAC-1]
α-Catenin [5]
  levels of full length α-Catenin: decreased levels
  ~90 kDa and ~85 kDa α-Catenin bands (cleaved): much higher levels
YAP [6]; PAC-1 alone
  numbers of nuclear YAP+/Ki67+ cells in SGs: higher numbers
[1]; 7 days PWI
  number of nuclear YAP and Ki67 cells: increased number
[1]; PAC-1 injected daily subcutaneously
  wound healing compared with control: healed significantly faster than control
XIAP [7]
  XIAP levels: increased
De novo regenerated SGs; 20 and 30 days post wound infliction
  number of regenerated de novo SGs: striking increase
De novo regenerated SGs
  size and maturation of regenerated SGs: significantly larger and more developed SGs
XIAP [8]; EGFPhigh SGPZ cells
  XIAP levels: increase in XIAP levels
YAP [9]
  levels of pYAP: significantly decreased
α-Catenin [10]
  levels of α-Catenin: decreased levels
Sebaceous gland (SG)
  SG size: significant increase
  cell proliferation / proliferative rates in the SG: significant increase
  caspase-3 activation in the SG: significant increase

## Verteporfin
YAP [6]; Verteporfin in combination with PAC-1
  proliferative effect of PAC-1 (Ki67+ cells in SGs): able to overcome the positive proliferative effect of PAC-1
YAP [6]; Verteporfin treatment
  nuclear translocation of YAP: did not affect
[1]; PAC1 with VP
  increased repair by PAC1 under YAP inhibition: could be revered
XIAP [7]; PAC-1 with Verteporfin
  PAC-1 induced increase of XIAP protein levels when YAP was inhibited: abolished
XIAP [7]
  XIAP levels: decrease in XIAP levels
De novo regenerated SGs
  size and maturation of regenerated SGs: did not develop into mature SGs
XIAP [8]; RNA from EGFPhigh SGPZ cells
  XIAP mRNA levels, lower compared to control cells: 2 fold

## CC1(C)CCC(CN2CCN(c3ccc(C(=O)NS(=O)(=O)c4ccc(NCC5CCOCC5)c([N+](=O)[O-])c4)c(Oc4cnc5[nH]ccc5c4)c3)CC2)=C(c2ccc(Cl)cc2)C1 [ABT-199]
YAP [9]
  levels of pYAP: significantly decreased
Human melanoma cells
  tumor expansion by in vivo imaging: dramatically expanded
Human melanoma cells; in vivo
  tumor mass: two-fold increased
[4]; established B16F10 tumors
  tumor volume and weight: increased in volume and weight
[4]; mouse, in vivo
  proliferation (Ki67) in resected tumors: higher proliferation; also recorded: high levels of proliferation
  tumor size: dramatic increase in size
[4]; staining
  activated cleaved Caspase-3 in resected tumors: higher expression
Sebaceous gland (SG)
  SG size: significant increase
  cell proliferation / proliferative rates in the SG: significant increase
  caspase-3 activation in the SG: significant increase
